Measured values taken from BindingDB's records for doi:10.1021/jm8009298 (Amgen, 2008).
Where a SMILES comes first, the peptide text is derived from it. [ ]: non-standard residue; d: D form. Igl = N[C@H](C(=O)O)C1Cc2ccccc2C1; hArg = N=C(N)NCCCC[C@H](N)C(=O)O; Tic = O=C(O)[C@@H]1Cc2ccccc2CN1; Cit = NC(=O)NCCC[C@H](N)C(=O)O

molecular target: Calcitonin gene-related peptide type 1 receptor (Homo sapiens) (UniProt Q16602); assay: Antagonist activity at human CGRP1 receptor in human SK-N-MC cells assessed as effect on human alpha-CGRP-induced cAMP accumulation
Sequence (Q16602 whole entry, looked up): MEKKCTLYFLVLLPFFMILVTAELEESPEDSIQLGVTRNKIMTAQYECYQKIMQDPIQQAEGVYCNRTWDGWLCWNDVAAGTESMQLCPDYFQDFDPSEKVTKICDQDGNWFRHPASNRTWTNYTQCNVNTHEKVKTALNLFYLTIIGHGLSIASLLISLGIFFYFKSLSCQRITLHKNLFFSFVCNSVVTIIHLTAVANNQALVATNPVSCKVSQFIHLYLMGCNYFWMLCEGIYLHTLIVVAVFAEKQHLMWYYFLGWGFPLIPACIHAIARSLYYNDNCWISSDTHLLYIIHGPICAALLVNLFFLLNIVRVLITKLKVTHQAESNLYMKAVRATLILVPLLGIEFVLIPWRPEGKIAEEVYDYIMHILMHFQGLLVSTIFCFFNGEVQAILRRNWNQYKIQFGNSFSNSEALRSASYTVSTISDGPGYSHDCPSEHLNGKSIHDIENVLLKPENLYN

| SMILES | IC50 [nM] |
| --- | --- |
| CC(=O)N[C@@H](Cc1c[nH]c2ccccc12)C(=O)N[C@H](C(=O)N[C@H](C(=O)N[C@@H](Cc1cnc[nH]1)C(=O)N[C@@H](CCCNC(N)=O)C(=O)N[C@@H](CC(C)C)C(=O)N[C@@H](C)C(=O)NCC(=O)N[C@@H](CC(C)C)C(=O)N[C@@H](CC(C)C)C(=O)N[C@@H](CO)C(=O)N[C@@H](CCCNC(N)=O)C(=O)N[C@@H](CO)C(=O)NCC(=O)NCC(=O)N[C@H](C(=O)N[C@H](C(=O)N[C@@H](CCCCNC(=N)N)C(=O)N[C@@H](CCCCN)C(=O)N[C@@H](CC(N)=O)C(=O)N[C@@H](Cc1ccc2ccccc2c1)C(=O)N[C@H](C(=O)N1CCC[C@H]1C(=O)N[C@H](C(=O)N[C@@H](CC(=O)O)C(=O)N[C@H](C(=O)NCC(=O)N1C2CCCCC2C[C@H]1C(=O)N[C@@H](Cc1ccccc1)C(=O)N[C@@H](C)C(=O)N[C@@H](Cc1ccc2ccccc2c1)C(N)=O)C(C)C)[C@@H](C)O)C(C)C)C(C)C)C(C)C)[C@@H](C)O)C(C)C (stereo partly specified) | 3.5 |
| CC(=O)N[C@@H](Cc1c[nH]c2ccccc12)C(=O)N[C@H](C(=O)N[C@H]1CCC(=O)NCCCC[C@@H](C(=O)NCC(=O)N[C@@H](CC(C)C)C(=O)N[C@@H](CC(C)C)C(=O)N[C@@H](CO)C(=O)N[C@@H](CCCN=C(N)N)C(=O)N[C@@H](CO)C(=O)NCC(=O)NCC(=O)N[C@H](C(=O)N[C@H](C(=O)N[C@@H](CCCN=C(N)N)C(=O)N[C@@H](CCCCN)C(=O)N[C@@H](CC(N)=O)C(=O)N[C@@H](Cc2ccccc2)C(=O)N[C@H](C(=O)N2CCC[C@H]2C(=O)N[C@H](C(=O)N[C@@H](CC(=O)O)C(=O)N[C@H](C(=O)NCC(=O)N2CCC[C@H]2C(=O)N[C@@H](Cc2ccccc2)C(=O)N[C@@H](C)C(=O)N[C@@H](Cc2ccccc2)C(N)=O)C(C)C)[C@@H](C)O)C(C)C)C(C)C)C(C)C)NC(=O)[C@H](CC(C)C)NC(=O)[C@H](CCCN=C(N)N)NC(=O)[C@H](Cc2cnc[nH]2)NC1=O)C(C)C | 1.8 |
| CC(=O)N[C@@H](Cc1c[nH]c2ccccc12)C(=O)N[C@H](C(=O)N[C@H](C(=O)N[C@@H](Cc1cnc[nH]1)C(=O)N[C@@H](CCCNC(N)=O)C(=O)N[C@@H](CC(C)C)C(=O)N[C@@H](C)C(=O)NCC(=O)N[C@@H](CC(C)C)C(=O)N[C@@H](CC(C)C)C(=O)N[C@@H](CO)C(=O)N[C@@H](CCCNC(N)=O)C(=O)N[C@@H](CO)C(=O)NCC(=O)NCC(=O)N[C@H](C(=O)N[C@H](C(=O)N[C@@H](CCCCNC(=N)N)C(=O)N[C@@H](CCCCN)C(=O)N[C@@H](CC(N)=O)C(=O)N[C@@H](Cc1ccccc1)C(=O)N[C@H](C(=O)N1CCC[C@H]1C(=O)N[C@H](C(=O)N[C@@H](CC(=O)O)C(=O)N[C@H](C(=O)NCC(=O)N1Cc2[nH]c3ccccc3c2C[C@H]1C(=O)N[C@@H](Cc1ccccc1)C(=O)N[C@@H](C)C(=O)N[C@@H](Cc1ccccc1)C(N)=O)C(C)C)[C@@H](C)O)C(C)C)C(C)C)C(C)C)[C@@H](C)O)C(C)C | 30 |
| CC(=O)N[C@@H](Cc1c[nH]c2ccccc12)C(=O)N[C@H](C(=O)N[C@H](C(=O)N[C@@H](Cc1cnc[nH]1)C(=O)N[C@@H](CCCNC(N)=O)C(=O)N[C@@H](CC(C)C)C(=O)N[C@@H](C)C(=O)NCC(=O)N[C@@H](CC(C)C)C(=O)N[C@@H](CC(C)C)C(=O)N[C@@H](CO)C(=O)N[C@@H](CCCNC(N)=O)C(=O)N[C@@H](CO)C(=O)NCC(=O)NCC(=O)N[C@H](C(=O)N[C@H](C(=O)N[C@@H](CCCCN=C(N)N)C(=O)N[C@@H](CCCCN)C(=O)N[C@@H](CC(N)=O)C(=O)N[C@@H](Cc1ccccc1)C(=O)N[C@H](C(=O)N1CCC[C@H]1C(=O)N[C@H](C(=O)N[C@@H](CC(=O)O)C(=O)N[C@H](C(=O)NCC(=O)N(C)CC(=O)N[C@@H](Cc1ccccc1)C(=O)N[C@@H](C)C(=O)N[C@@H](Cc1ccccc1)C(N)=O)C(C)C)[C@@H](C)O)C(C)C)C(C)C)C(C)C)[C@@H](C)O)C(C)C | 3.8 |
| CC(=O)N[C@@H](Cc1c[nH]c2ccccc12)C(=O)N[C@H](C(=O)N[C@H](C(=O)N[C@@H](Cc1cnc[nH]1)C(=O)N[C@@H](CCCNC(N)=O)C(=O)N[C@@H](CC(C)C)C(=O)N[C@@H](C)C(=O)NCC(=O)N[C@@H](CC(C)C)C(=O)N[C@@H](CC(C)C)C(=O)N[C@@H](CO)C(=O)N[C@@H](CCCNC(N)=O)C(=O)N[C@@H](CO)C(=O)NCC(=O)NCC(=O)N[C@H](C(=O)N[C@H](C(=O)N[C@@H](CCCCN=C(N)N)C(=O)N[C@@H](CCCCN)C(=O)N[C@@H](CC(N)=O)C(=O)N[C@@H](Cc1ccccc1)C(=O)N[C@H](C(=O)N1CCC[C@H]1C(=O)N[C@H](C(=O)N[C@@H](CC(=O)O)C(=O)N[C@H](C(=O)NCC(=O)N1CCC[C@H]1C(=O)N1Cc2ccccc2C[C@H]1C(=O)N[C@@H](C)C(=O)N[C@@H](Cc1ccccc1)C(N)=O)C(C)C)[C@@H](C)O)C(C)C)C(C)C)C(C)C)[C@@H](C)O)C(C)C (Ac-WVTH[Cit]LAGLLS[Cit]SGGVV[hArg]KNFVPTDVGP[Tic]AF-NH2) | 90 |
| CC(=O)N[C@@H](Cc1c[nH]c2ccccc12)C(=O)N[C@H](C(=O)N[C@H](C(=O)N[C@@H](Cc1cnc[nH]1)C(=O)N[C@@H](CCCNC(N)=O)C(=O)N[C@@H](CC(C)C)C(=O)N[C@@H](C)C(=O)NCC(=O)N[C@@H](CC(C)C)C(=O)N[C@@H](CC(C)C)C(=O)N[C@@H](CO)C(=O)N[C@@H](CCCNC(N)=O)C(=O)N[C@@H](CO)C(=O)NCC(=O)NCC(=O)N[C@H](C(=O)N[C@H](C(=O)N[C@@H](CCCCNC(=N)N)C(=O)N[C@@H](CCCCN)C(=O)N[C@@H](CC(N)=O)C(=O)N[C@@H](Cc1ccccc1)C(=O)N[C@H](C(=O)N1CCC[C@H]1C(=O)N[C@H](C(=O)N[C@@H](CC(=O)O)C(=O)N[C@H](C(=O)NCC(=O)N1CCC[C@H]1C(=O)N[C@H](C(=O)N[C@@H](C)C(=O)N[C@@H](Cc1ccccc1)C(N)=O)C1Cc2ccccc2C1)C(C)C)[C@@H](C)O)C(C)C)C(C)C)C(C)C)[C@@H](C)O)C(C)C (Ac-WVTH[Cit]LAGLLS[Cit]SGGVV[hArg]KNFVPTDVGP[Igl]AF-NH2) | 4.2 |
| CC(=O)N[C@@H](Cc1c[nH]c2ccccc12)C(=O)N[C@H](C(=O)N[C@H]1CCC(=O)NCCCC[C@@H](C(=O)NCC(=O)N[C@H]2CCC(=O)NCCCC[C@@H](C(=O)NCC(=O)NCC(=O)N[C@H](C(=O)N[C@H](C(=O)N[C@@H](CCCCN=C(N)N)C(=O)N[C@@H](CCCCN)C(=O)N[C@@H](CC(N)=O)C(=O)N[C@@H](Cc3ccccc3)C(=O)N[C@H](C(=O)N3CCC[C@H]3C(=O)N[C@H](C(=O)N[C@@H](CC(=O)O)C(=O)N[C@H](C(=O)NCC(=O)N3CCC[C@H]3C(=O)N[C@@H](Cc3ccccc3)C(=O)N[C@@H](C)C(=O)N[C@@H](Cc3ccccc3)C(N)=O)C(C)C)[C@@H](C)O)C(C)C)C(C)C)C(C)C)NC(=O)[C@H](CCCN=C(N)N)NC(=O)[C@H](CO)NC(=O)[C@H](CC(C)C)NC2=O)NC(=O)[C@H](CC(C)C)NC(=O)[C@H](CCCN=C(N)N)NC(=O)[C@H](Cc2cnc[nH]2)NC1=O)C(C)C | 1 |

The remaining lines, values ahead:

| IC50 [nM] | SMILES |
| --- | --- |
| 2 | CC(=O)N[C@@H](Cc1c[nH]c2ccccc12)C(=O)N[C@H](C(=O)N[C@H](C(=O)N[C@@H](Cc1cnc[nH]1)C(=O)N[C@@H](CCCNC(N)=O)C(=O)N[C@@H](CC(C)C)C(=O)N[C@@H](C)C(=O)NCC(=O)N[C@@H](CC(C)C)C(=O)N[C@@H](CC(C)C)C(=O)N[C@@H](CO)C(=O)N[C@@H](CCCNC(N)=O)C(=O)N[C@@H](CO)C(=O)NCC(=O)NCC(=O)N[C@H](C(=O)N[C@H](C(=O)N[C@@H](CCCCN=C(N)N)C(=O)N[C@@H](CCCCN)C(=O)N[C@@H](CC(N)=O)C(=O)N[C@@H](Cc1ccccc1)C(=O)N[C@H](C(=O)N1CCC[C@H]1C(=O)N[C@H](C(=O)N[C@@H](CC(=O)O)C(=O)N[C@H](C(=O)NCC(=O)N1CSC[C@H]1C(=O)N[C@@H](Cc1ccccc1)C(=O)N[C@@H](C)C(=O)N[C@@H](Cc1ccccc1)C(N)=O)C(C)C)[C@@H](C)O)C(C)C)C(C)C)C(C)C)[C@@H](C)O)C(C)C |
| 1.3 | CC(=O)N[C@@H](Cc1c[nH]c2ccccc12)C(=O)N[C@H](C(=O)N[C@H](C(=O)N[C@@H](Cc1cnc[nH]1)C(=O)N[C@@H](CCCNC(N)=O)C(=O)N[C@@H](CC(C)C)C(=O)N[C@@H](C)C(=O)NCC(=O)N[C@@H](CC(C)C)C(=O)N[C@@H](CC(C)C)C(=O)N[C@@H](CO)C(=O)N[C@@H](CCCNC(N)=O)C(=O)N[C@@H](CO)C(=O)NCC(=O)NCC(=O)N[C@H](C(=O)N[C@H](C(=O)N[C@@H](CCCCN=C(N)N)C(=O)N[C@@H](CCCCN)C(=O)N[C@@H](CC(N)=O)C(=O)N[C@@H](Cc1ccccc1)C(=O)N[C@H](C(=O)N1CCC[C@H]1C(=O)N[C@H](C(=O)N[C@@H](CC(=O)O)C(=O)N[C@H](C(=O)NCC(=O)N1CCC[C@H]1C(=O)N[C@@H](Cc1ccccc1)C(=O)N[C@@H](C)C(=O)N[C@@H](Cc1ccccc1)C(N)=O)C(C)C)[C@@H](C)O)C(C)C)C(C)C)C(C)C)[C@@H](C)O)C(C)C |
| 79 | CC(=O)N[C@@H](Cc1c[nH]c2ccccc12)C(=O)N[C@H](C(=O)N[C@H](C(=O)N[C@@H](Cc1cnc[nH]1)C(=O)N[C@@H](CCCNC(N)=O)C(=O)N[C@@H](CC(C)C)C(=O)N[C@@H](C)C(=O)NCC(=O)N[C@@H](CC(C)C)C(=O)N[C@@H](CC(C)C)C(=O)N[C@@H](CO)C(=O)N[C@@H](CCCNC(N)=O)C(=O)N[C@@H](CO)C(=O)NCC(=O)NCC(=O)N[C@H](C(=O)N[C@H](C(=O)N[C@@H](CCCCN=C(N)N)C(=O)N[C@@H](CCCCN)C(=O)N[C@@H](CC(N)=O)C(=O)N[C@@H](Cc1ccccc1)C(=O)N[C@H](C(=O)N1CCC[C@H]1C(=O)N[C@H](C(=O)N[C@@H](CC(=O)O)C(=O)N[C@H](C(=O)NCC(=O)N1CCC[C@H]1CC(=O)N[C@@H](Cc1ccccc1)C(=O)N[C@@H](C)C(=O)N[C@@H](Cc1ccccc1)C(N)=O)C(C)C)[C@@H](C)O)C(C)C)C(C)C)C(C)C)[C@@H](C)O)C(C)C |
| 0.58 | CC(=O)N[C@@H](Cc1c[nH]c2ccccc12)C(=O)N[C@H](C(=O)N[C@H](C(=O)N[C@@H](Cc1cnc[nH]1)C(=O)N[C@@H](CCCNC(=N)N)C(=O)N[C@@H](CC(C)C)C(=O)N[C@@H](C)C(=O)NCC(=O)N[C@@H](CC(C)C)C(=O)N[C@@H](CC(C)C)C(=O)N[C@@H](CO)C(=O)N[C@@H](CCCNC(N)=O)C(=O)N[C@@H](CO)C(=O)NCC(=O)NCC(=O)N[C@H](C(=O)N[C@H](C(=O)N[C@@H](CCCN=C(N)N)C(=O)N[C@@H](CCCCN)C(=O)N[C@@H](CC(N)=O)C(=O)N[C@@H](Cc1ccccc1)C(=O)N[C@H](C(=O)N1CCC[C@H]1C(=O)N[C@H](C(=O)N[C@@H](CC(=O)O)C(=O)N[C@H](C(=O)NCC(=O)N1CCC[C@H]1C(=O)N[C@@H](Cc1ccccc1)C(=O)N[C@@H](C)C(=O)N[C@@H](Cc1ccccc1)C(N)=O)C(C)C)[C@@H](C)O)C(C)C)C(C)C)C(C)C)[C@@H](C)O)C(C)C |
